Test results as given in ChEMBL document CHEMBL1201862, “PubChem BioAssay data set” (2004).
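Cells were grown in 96-well plates and exposed to each compound for 48 hours at five concentrations; endpoints were interpolated linearly between bracketing concentrations, or set to the highest concentration if not reached. The concentration for 50% growth inhibition is given as GI50.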 Active and inactive are the calls of the source. Cut-off read from the data, not from the text of the source: active = GI50 up to about 1.1 µM and inactive = higher.

Columns and labels:
Test in all cases: NCI tumour cell line growth inhibition, 48 h
[1] = test system: 786-0
[2] = test system: A549
[3] = test system: ACHN
[4] = test system: CAKI-1
[5] = test system: EKVX
[6] = test system: HCC 2998
[7] = test system: HL-60
[8] = test system: HOP-62
[9] = test system: IGROV-1
[10] = test system: KM12
[11] = test system: OVCAR-5
[12] = test system: OVCAR-8
[13] = test system: RPMI-8226
[14] = test system: SF-295
[15] = test system: SF-539
[16] = test system: SK-MEL-5
[17] = test system: SK-OV-3
[18] = test system: SNB-19
[19] = test system: TK-10
[20] = test system: U-251

Row | SMILES | GI50 [1] | GI50 [2] | GI50 [3] | GI50 [4] | GI50 [5] | GI50 [6] | GI50 [7] | GI50 [8] | GI50 [9] | GI50 [10] | GI50 [11] | GI50 [12] | GI50 [13] | GI50 [14] | GI50 [15] | GI50 [16] | GI50 [17] | GI50 [18] | GI50 [19] | GI50 [20]
1 | COC(=O)c1ccc2c(c1)S/C(=C/c1ccc3ccc4cccc5ccc1c3c45)S2 | > 100 µM (inactive) | 42 µM (inactive) | > 100 µM (inactive) | 40.1 µM (inactive) | > 100 µM (inactive) | 89.3 µM (inactive) | 20.7 µM (inactive) | 37.1 µM (inactive) | 46 µM (inactive) | 24.4 µM (inactive) | > 100 µM (inactive) | 31.6 µM (inactive) | 38.3 µM (inactive) | 40.8 µM (inactive) | > 100 µM (inactive) | > 100 µM (inactive) | > 100 µM (inactive) | 50.6 µM (inactive) | 98.4 µM (inactive) | 48.8 µM (inactive)
2 | CCOC(=O)N1CCN(Cc2cc(=O)n3ccc(C)cc3n2)CC1 | > 100 µM (inactive) | > 100 µM (inactive) | > 100 µM (inactive) | > 100 µM (inactive) | > 100 µM (inactive) | > 100 µM (inactive) | > 100 µM (inactive) | > 100 µM (inactive) | > 100 µM (inactive) | > 100 µM (inactive) | > 100 µM (inactive) | > 100 µM (inactive) | > 100 µM (inactive) | > 100 µM (inactive) | > 100 µM (inactive) | > 100 µM (inactive) | > 100 µM (inactive) | > 100 µM (inactive) | > 100 µM (inactive) | > 100 µM (inactive)
3 | O=C1N[C@@H]([C@H]2CC[C@H](Cl)CN2)C(=O)N[C@H]1[C@H]1CC[C@H](Cl)CN1 | 0.1 µM (active) | 0.248 µM (active) | 0.1 µM (active) | 0.261 µM (active) | 3.32 µM (inactive) | 0.923 µM (active) | 0.1 µM (active) | 0.28 µM (active) | 4.34 µM (inactive) | 3.3 µM (inactive) | 1.25 µM (inactive) | 0.853 µM (active) | 1.32 µM (inactive) | 0.169 µM (active) | 0.357 µM (active) | 1.21 µM (inactive) | 0.836 µM (active) | 1.37 µM (inactive) | 4.42 µM (inactive) | 0.406 µM (active)
4 | Cc1cc(-c2ccccc2)nc(Nc2nc3ccccc3o2)n1 | > 100 µM (inactive) | > 100 µM (inactive) | > 100 µM (inactive) | > 100 µM (inactive) | > 100 µM (inactive) | > 100 µM (inactive) | > 100 µM (inactive) | > 100 µM (inactive) | > 100 µM (inactive) | > 100 µM (inactive) | > 100 µM (inactive) | > 100 µM (inactive) | > 100 µM (inactive) | > 100 µM (inactive) | > 100 µM (inactive) | > 100 µM (inactive) | > 100 µM (inactive) | > 100 µM (inactive) | > 100 µM (inactive) | > 100 µM (inactive)
5 | O=[N+]([O-])C1=Cc2c(O)ccc(O)c2C2c3ccccc3NC12 (stereo not given) | 12.1 µM (inactive) | 17.3 µM (inactive) | 5.83 µM (inactive) | 4.36 µM (inactive) | 14.8 µM (inactive) | 7.52 µM (inactive) | 5.85 µM (inactive) | 11.3 µM (inactive) | 13.5 µM (inactive) | 9.04 µM (inactive) | 16.1 µM (inactive) | 5.82 µM (inactive) | 10.4 µM (inactive) | 13.2 µM (inactive) | 30.9 µM (inactive) | 12.8 µM (inactive) | 29 µM (inactive) | 12.2 µM (inactive) | 16.1 µM (inactive) | 12.9 µM (inactive)
6 | CCOC(=O)C(C(N)=O)C1=Nc2cc([N+](=O)[O-])ccc2N/C1=C\C(=O)c1ccccc1 (stereo not given) | 11.4 µM (inactive) | 17.3 µM (inactive) | 15.3 µM (inactive) | 22.9 µM (inactive) | 20.6 µM (inactive) | 10.1 µM (inactive) | 8.93 µM (inactive) | 10.9 µM (inactive) | 11.2 µM (inactive) | 12.1 µM (inactive) | 24 µM (inactive) | 16.4 µM (inactive) | 11.1 µM (inactive) | 16.7 µM (inactive) | 15.1 µM (inactive) | 16.7 µM (inactive) | 14.1 µM (inactive) | 18.5 µM (inactive) | 11 µM (inactive) | 11.3 µM (inactive)
7 | CS(=O)(=O)c1nc(N)nc2nc[nH]c12 | > 100 µM (inactive) | > 100 µM (inactive) | > 100 µM (inactive) | > 100 µM (inactive) | > 100 µM (inactive) | > 100 µM (inactive) | > 100 µM (inactive) | > 100 µM (inactive) | > 100 µM (inactive) | > 100 µM (inactive) | > 100 µM (inactive) | > 100 µM (inactive) | > 100 µM (inactive) | > 100 µM (inactive) | > 100 µM (inactive) | > 100 µM (inactive) | > 100 µM (inactive) | > 100 µM (inactive) | > 100 µM (inactive) | > 100 µM (inactive)
8 | COc1cc([C@@H]2c3cc4c(cc3[C@@H](NCc3ccccc3F)C3COC(=O)[C@@H]32)OCO4)cc(OC)c1O (stereo not given in full) | 2.81 µM (inactive) | 0.933 µM (active) | 1.11 µM (active) | 1.91 µM (inactive) | 10.7 µM (inactive) | 11.8 µM (inactive) | 1.18 µM (inactive) | 1.93 µM (inactive) | 1.11 µM (active) | 3.99 µM (inactive) | 24.8 µM (inactive) | 6.03 µM (inactive) | 1.93 µM (inactive) | 1.43 µM (inactive) | 1.47 µM (inactive) | 0.828 µM (active) | 2.58 µM (inactive) | 5.36 µM (inactive) | 27.6 µM (inactive) | 1.89 µM (inactive)
9 | C[C@H](CCC(=O)NCCS(=O)(=O)O)[C@H]1CC[C@H]2[C@@H]3[C@H](O)C[C@@H]4C[C@H](O)CC[C@]4(C)[C@H]3CC[C@]12C | > 100 µM (inactive) | > 100 µM (inactive) | > 100 µM (inactive) | > 100 µM (inactive) | > 100 µM (inactive) | > 100 µM (inactive) | > 100 µM (inactive) | > 100 µM (inactive) | > 100 µM (inactive) | > 100 µM (inactive) | > 100 µM (inactive) | > 100 µM (inactive) | > 100 µM (inactive) | > 100 µM (inactive) | > 100 µM (inactive) | > 100 µM (inactive) | > 100 µM (inactive) | > 100 µM (inactive) | > 100 µM (inactive) | > 100 µM (inactive)
